Measured values from patent US8293979B2, “Weed controller metabolism proteins, genes, thereof and use of the same” (Sumitomo Chemical Company, Limited, priority 2001, dated 2012).

What was measured:
Test in all cases: Metabolism of compound (II) by a microorganism
Type in all cases: in vitro ADME
Conditions in all cases: compound (II) at 100 ppm, 7 to 8 days at 30° C.
[1] = system: Streptomyces griseus ATCC10137
Method: (§1) The HPLC for content analysis in Examples 1, 41 and 42 and fraction purification of the compound was conducted under the conditions shown below.
(§2) The various microorganisms shown in Tables 1 and 2 were grown in ISP2 agar medium (1.0% (w/v) malt extract, 0.4% (w/v) yeast extract, 0.4% (w/v) glucose, 2.0% (w/v) agar, pH 7.3). A “loopful” of the each microorganism was added to TGY medium (0.5% (w/v) tryptone, 0.5% (w/v) yeast extract, 0.1% (w/v) glucose, 0.01% (w/v) KH2PO4, pH 7.0) and incubated with shaking at 30° C. for 2 to 4 days. One-tenth milliliter (0.1 ml) of the obtained culture was incubated with shaking in 3 ml of sporulation medium (0.1% (w/v) of meat extract, 0.2% (w/v) tryptose, 1% glucose, pH 7.1) containing compound (II) at 100 ppm for 7 to 8 days at 30° C. Fifty microliters (50 μl) of 2N HCl was added to the resulting culture and this was extracted with 3 ml of ethyl acetate. The obtained ethyl acetate layer was analyzed on the HPLC. The concentration of compound (II) was reduced (column retention time of 23.9 minutes) and new peaks were detected for compounds at retention times of 21.6 minutes and 22.2 minutes (each referred to as metabolite (I) and metabolite (II)).

[2] = system: Streptomyces lydicus IFO13058
Method: as §1, §2

[3] = system: Streptomyces cacaoiasoensis IFO13813
Method: as §1, §2

[4] = system: Streptomyces chartreusis ATCC21901
Method: as §1, §2

[5] = system: Streptomyces erythreus ATCC11635
Method: as §1, §2

[6] = system: Streptomyces griseolus ATCC11796
Method: as §1, §2

[7] = system: Streptomyces testaceus ATCC21469
Method: as §1, §2

[8] = system: Streptomyces afghaniensis IFO12831
Method: as §1, §2

[9] = system: Streptomyces argenteolus var. toyonakensis ATCC21468
Method: as §1, §2

[10] = system: Streptomyces kasugaensis ATCC15714
Method: as §1, §2

[11] = system: Streptomyces sp. SANK62585
Method: as §1, §2

[12] = system: Streptomyces roseochromogenus ATCC21895
Method: as §1, §2

[13] = system: Streptomyces nogalater IFO13445
Method: as §1, §2

[14] = system: Streptomyces purpurascens ATCC25489
Method: as §1, §2

[15] = system: Streptomyces roseochromogenes ATCC13400t
Method: as §1, §2

[16] = system: Streptomyces hachijoensis IFO12782
Method: as §1, §2

[17] = system: Streptomyces kasugaensis IFO13851
Method: as §1, §2

[18] = system: Streptomyces rimosus ATCC10970
Method: as §1, §2

[19] = system: Streptomyces griseus ATCC12475
Method: as §1, §2

[20] = system: Streptomyces griseus IFO3102
Method: as §1, §2

[21] = system: Streptomyces phaeochromogenes IFO12898
Method: as §1, §2

[22] = system: Streptomyces catenulae IFO12848
Method: as §1, §2

[23] = system: Streptomyces griseus ATCC11429
Method: as §1, §2

[24] = system: Streptomyces globisporus subsp. globisporus ATCC21903
Method: as §1, §2

[25] = system: Streptomyces lavendulae ATCC11924
Method: as §1, §2

[26] = system: Streptomyces griseus ATCC15395
Method: as §1, §2

[27] = system: Streptomyces griseochromogenes ATCC14511
Method: as §1, §2

[28] = system: Streptomyces thermocoerulescens IFO14273t
Method: as §1, §2

[29] = system: Streptomyces ornatus IFO13069t
Method: as §1, §2

[30] = system: Streptomyces argenteolus var. toyon ATCC21468t
Method: as §1, §2

[31] = system: Streptomyces achromogenes IFO12735
Method: as §1, §2

[32] = system: Saccharopolyspora taberi JCM9383T
Method: as §1, §2

[33] = system: Streptomyces roseochromogenes ATCC13400
Method: as §1, §2

[34] = system: Streptomyces fimicarius ATCC21900
Method: as §1, §2

[35] = system: Streptomyces griseofuscus IFO12870t
Method: as §1, §2

[36] = system: Streptomyces scabies IFO3111
Method: as §1, §2

Q: How did the “concentration of compound (II)” value [1] turn out when `C[C@@H](Oc1cc(-n2c(=O)cc(C(F)(F)F)n(C)c2=O)c(F)cc1Cl)C(=O)O` [compound (II)] was run?
A: Its value is 65.6 ppm.

Q: What about the “concentration of compound (II)” value [2] of the same compound?
A: The value was 62.0 ppm.

Q: And the “concentration of compound (II)” value [3]?
A: The value was 77.8 ppm.

Q: What about the “concentration of compound (II)” value [4] of the same compound?
A: Its value is 61.1 ppm.

Q: And the “concentration of compound (II)” value [5]?
A: The value was 54.6 ppm.

Q: What about the “concentration of compound (II)” value [6] of the same compound?
A: The value was 0 ppm.

Q: And the “concentration of compound (II)” value [7]?
A: The value was 18.4 ppm.

Q: What about the “concentration of compound (II)” value [8] of the same compound?
A: Its value is 80.6 ppm.

Q: And the “concentration of compound (II)” value [9]?
A: Its value is 13.0 ppm.

Q: And the “concentration of compound (II)” value [10]?
A: Its value is 92.4 ppm.

Q: And the “concentration of compound (II)” value [11]?
A: The value was 54.6 ppm.

Q: What about the “concentration of compound (II)” value [12] of the same compound?
A: Its value is 74.2 ppm.

Q: What about the “concentration of compound (II)” value [13] of the same compound?
A: The value was 12.8 ppm.

Q: And the “concentration of compound (II)” value [14]?
A: Its value is 70.9 ppm.

Q: What about the “concentration of compound (II)” value [15] of the same compound?
A: Its value is 71.8 ppm.

Q: What about the “concentration of compound (II)” value [16] of the same compound?
A: Its value is 83.9 ppm.

Q: And the “concentration of compound (II)” value [17]?
A: The value was 66.3 ppm.

Q: What about the “concentration of compound (II)” value [18] of the same compound?
A: Its value is 70.9 ppm.

Q: What about the “concentration of compound (II)” value [19] of the same compound?
A: Its value is 51.1 ppm.

Q: What about the “concentration of compound (II)” value [20] of the same compound?
A: Its value is 22.6 ppm.

Q: What about the “concentration of compound (II)” value [21] of the same compound?
A: Its value is 46.4 ppm.

Q: And the “concentration of compound (II)” value [22]?
A: The value was 85.3 ppm.

Q: What about the “concentration of compound (II)” value [23] of the same compound?
A: The value was 30.3 ppm.

Q: And the “concentration of compound (II)” value [24]?
A: The value was 79.9 ppm.

Q: What about the “concentration of compound (II)” value [25] of the same compound?
A: The value was 89.6 ppm.

Q: What about the “concentration of compound (II)” value [26] of the same compound?
A: The value was 75.2 ppm.

Q: And the “concentration of compound (II)” value [27]?
A: The value was 53.9 ppm.

Q: And the “concentration of compound (II)” value [28]?
A: The value was 51.7 ppm.

Q: And the “concentration of compound (II)” value [29]?
A: The value was 65.3 ppm.

Q: And the “concentration of compound (II)” value [30]?
A: The value was 90.1 ppm.

Q: And the “concentration of compound (II)” value [31]?
A: Its value is 0.0 ppm.

Q: What about the “concentration of compound (II)” value [32] of the same compound?
A: Its value is 82.9 ppm.

Q: And the “concentration of compound (II)” value [33]?
A: The value was 81.9 ppm.

Q: And the “concentration of compound (II)” value [34]?
A: Its value is 46.5 ppm.

Q: What about the “concentration of compound (II)” value [35] of the same compound?
A: The value was 49.5 ppm.

Q: What about the “concentration of compound (II)” value [36] of the same compound?
A: Its value is 88.3 ppm.
